Laboratory results taken from PubChem BioAssay (NCI).
Values joined by “and” are separate entries in the source; they are usually repeats but may differ in a detail not shown here. Equal values may be shown once.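 How tested: cells in 96-well plates exposed to compound for 48 hours at five concentrations. GI50 marks 50% less growth. TGI is the concentration that stops growth completely.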

Legend:
Assay in all cases: NCI-60 cell line screen, 48 h
786-0 renal = tested on: 786-0 renal
A498 renal = tested on: A498 renal
A549 NSCLC = tested on: A549 NSCLC
ACHN renal = tested on: ACHN renal
BT-549 breast = tested on: BT-549 breast
CAKI-1 renal = tested on: CAKI-1 renal
CCRF-CEM leukemia = tested on: CCRF-CEM leukemia
COLO 205 colon = tested on: COLO 205 colon
DU-145 prostate = tested on: DU-145 prostate
EKVX NSCLC = tested on: EKVX NSCLC
HCC-2998 colon = tested on: HCC-2998 colon
HCT-116 colon = tested on: HCT-116 colon
HCT-15 colon = tested on: HCT-15 colon
HL-60(TB) leukemia = tested on: HL-60(TB) leukemia
HOP-62 NSCLC = tested on: HOP-62 NSCLC
HOP-92 NSCLC = tested on: HOP-92 NSCLC
HS 578T breast = tested on: HS 578T breast
HT29 colon = tested on: HT29 colon
IGROV1 ovarian = tested on: IGROV1 ovarian
K-562 leukemia = tested on: K-562 leukemia
KM12 colon = tested on: KM12 colon
LOX IMVI melanoma = tested on: LOX IMVI melanoma
M14 melanoma = tested on: M14 melanoma
MALME-3M melanoma = tested on: MALME-3M melanoma
MCF7 breast = tested on: MCF7 breast
MDA-MB-231 breast = tested on: MDA-MB-231 breast
MDA-MB-435 = tested on: MDA-MB-435
MDA-N = tested on: MDA-N
MOLT-4 leukemia = tested on: MOLT-4 leukemia
NCI-H226 lung = tested on: NCI-H226 lung
NCI-H23 lung = tested on: NCI-H23 lung
NCI-H460 lung = tested on: NCI-H460 lung
NCI/ADR-RES ovarian = tested on: NCI/ADR-RES ovarian
OVCAR-3 ovarian = tested on: OVCAR-3 ovarian
OVCAR-4 ovarian = tested on: OVCAR-4 ovarian
OVCAR-5 ovarian = tested on: OVCAR-5 ovarian
OVCAR-8 ovarian = tested on: OVCAR-8 ovarian
PC-3 prostate = tested on: PC-3 prostate
RPMI-8226 leukemia = tested on: RPMI-8226 leukemia
RXF 393 renal = tested on: RXF 393 renal
SF-268 CNS = tested on: SF-268 CNS
SF-295 CNS = tested on: SF-295 CNS
SF-539 CNS = tested on: SF-539 CNS
SK-MEL-2 melanoma = tested on: SK-MEL-2 melanoma
SK-MEL-28 melanoma = tested on: SK-MEL-28 melanoma
SK-MEL-5 melanoma = tested on: SK-MEL-5 melanoma
SK-OV-3 ovarian = tested on: SK-OV-3 ovarian
SN12C renal = tested on: SN12C renal
SNB-19 CNS = tested on: SNB-19 CNS
SNB-75 CNS = tested on: SNB-75 CNS
SR leukemia = tested on: SR leukemia
SW-620 colon = tested on: SW-620 colon
T-47D breast = tested on: T-47D breast
TK-10 renal = tested on: TK-10 renal
U251 CNS = tested on: U251 CNS
UACC-257 melanoma = tested on: UACC-257 melanoma
UACC-62 melanoma = tested on: UACC-62 melanoma
UO-31 renal = tested on: UO-31 renal

CCN(CC)CCNc1n[n+]([O-])c2cc([N+](=O)[O-])ccc2[n+]1[O-]
GI50 (786-0 renal): 0.462 µM and 0.239 µM and 0.2 µM | TGI (786-0 renal): 3.1 µM and 1.63 µM and 1.68 µM | TGI (A498 renal): 7.99 µM and 4.69 µM and 6.23 µM | TGI (A549 NSCLC): 3.11 µM and 3.08 µM and 2.48 µM | GI50 (ACHN renal): 0.401 µM and 0.212 µM and 0.187 µM | TGI (ACHN renal): 3.93 µM and 2.06 µM and 1.92 µM | TGI (BT-549 breast): 8.85 µM and 8.27 µM and 3.64 µM | TGI (CAKI-1 renal): 1.79 µM and 2.7 µM and 1.97 µM | GI50 (CCRF-CEM leukemia): 0.263 µM and 0.111 µM and 0.138 µM | TGI (CCRF-CEM leukemia): 1.1 µM and 0.841 µM and 0.999 µM | TGI (COLO 205 colon): 2.5 µM and 1.74 µM and 2.12 µM | GI50 (DU-145 prostate): 1.2 µM and 0.63 µM and 0.578 µM | TGI (DU-145 prostate): 6.15 µM and 3.57 µM and 3.16 µM | TGI (EKVX NSCLC): 8.38 µM and 5.78 µM and 5.3 µM | GI50 (HCC-2998 colon): 0.206 µM and 0.287 µM and 0.12 µM | TGI (HCC-2998 colon): 1.53 µM and 2.01 µM and 0.57 µM | TGI (HCT-116 colon): 2.79 µM and 2.39 µM and 2.3 µM | GI50 (HCT-15 colon): 0.87 µM and 0.287 µM and 0.273 µM | TGI (HCT-15 colon): 5.12 µM and 3.16 µM and 2.74 µM | GI50 (HL-60(TB) leukemia): 0.14 µM and 0.0691 µM and 0.0173 µM | TGI (HL-60(TB) leukemia): 0.381 µM and 0.278 µM and 0.0882 µM | TGI (HOP-62 NSCLC): 2.2 µM and 1.2 µM and 1.54 µM | GI50 (HOP-92 NSCLC): 0.163 µM and 0.297 µM and 0.449 µM | TGI (HOP-92 NSCLC): 1.93 µM and 2.53 µM and 2.28 µM | TGI (HS 578T breast): 54.2 µM | TGI (HT29 colon): 2.41 µM and 2.22 µM and 1.71 µM | TGI (IGROV1 ovarian): 1.83 µM and 0.999 µM and 0.897 µM | GI50 (K-562 leukemia): 0.296 µM and 0.199 µM and 0.124 µM | TGI (K-562 leukemia): 1.23 µM and 1.28 µM and 0.926 µM | TGI (KM12 colon): 2.72 µM and 2.99 µM and 2.41 µM | TGI (LOX IMVI melanoma): 2.06 µM and 1.96 µM and 1.83 µM | TGI (M14 melanoma): 2.17 µM and 2.63 µM and 2.02 µM | GI50 (MALME-3M melanoma): 0.571 µM and 0.306 µM and 0.144 µM | TGI (MALME-3M melanoma): 1.85 µM and 1.38 µM and 1.15 µM | GI50 (MCF7 breast): 0.274 µM and 0.11 µM and 0.136 µM | TGI (MCF7 breast): 1.91 µM and 2.17 µM and 1.99 µM | GI50 (MDA-MB-231 breast): 1.76 µM and 0.425 µM and 0.975 µM | TGI (MDA-MB-231 breast): 6.33 µM and 3.15 µM and 4.26 µM | TGI (MDA-MB-435): 2.71 µM and 2.37 µM and 2.29 µM | TGI (MDA-N): 2.48 µM and 1.65 µM and 1.2 µM | GI50 (MOLT-4 leukemia): 0.0833 µM and 0.0383 µM and 0.0339 µM | TGI (MOLT-4 leukemia): 0.292 µM and 0.198 µM and 0.176 µM | TGI (NCI-H226 lung): 8.82 µM and 7.74 µM and 7.8 µM | GI50 (NCI-H23 lung): 0.117 µM and 0.275 µM and 0.146 µM | TGI (NCI-H23 lung): 1.55 µM and 1.58 µM and 1.94 µM | GI50 (NCI-H460 lung): 0.264 µM and 0.0353 µM and 0.0939 µM | TGI (NCI-H460 lung): 1.63 µM and 1.16 µM and 1.28 µM | TGI (NCI/ADR-RES ovarian): 4.74 µM and 5.68 µM and 5.6 µM | TGI (OVCAR-3 ovarian): 3.15 µM and 3.02 µM and 3.73 µM | TGI (OVCAR-4 ovarian): 3.78 µM and 5.62 µM and 6.49 µM | TGI (OVCAR-5 ovarian): 4.45 µM and 3.44 µM and 4.33 µM | TGI (OVCAR-8 ovarian): 1.99 µM and 1.7 µM and 1.53 µM | GI50 (PC-3 prostate): 1.09 µM and 0.351 µM and 0.36 µM | TGI (PC-3 prostate): 9.4 µM and 4.92 µM and 4.59 µM | GI50 (RPMI-8226 leukemia): 0.27 µM and 0.285 µM and 0.122 µM | TGI (RPMI-8226 leukemia): 1.77 µM and 1.72 µM and 1.02 µM | TGI (RXF 393 renal): 5.14 µM and 4.28 µM and 3.03 µM | TGI (SF-268 CNS): 8.56 µM and 4.92 µM and 5.23 µM | GI50 (SF-295 CNS): 0.253 µM and 0.447 µM and 0.186 µM | TGI (SF-295 CNS): 1.95 µM and 3.08 µM and 2.64 µM | GI50 (SF-539 CNS): 0.809 µM and 0.402 µM and 0.355 µM | TGI (SF-539 CNS): 2.57 µM and 1.36 µM and 1.38 µM | GI50 (SK-MEL-2 melanoma): 1.39 µM and 0.639 µM and 0.575 µM | TGI (SK-MEL-2 melanoma): 3 µM and 2.02 µM and 2.88 µM | TGI (SK-MEL-28 melanoma): 22.4 µM and 22.8 µM and 14.5 µM | TGI (SK-MEL-5 melanoma): 2.01 µM and 1.56 µM and 1.7 µM | TGI (SK-OV-3 ovarian): 4.33 µM and 3.79 µM and 3.86 µM | GI50 (SN12C renal): 0.675 µM and 0.249 µM and 0.255 µM | TGI (SN12C renal): 2.97 µM and 2.33 µM and 2.58 µM | TGI (SNB-19 CNS): 6.34 µM and 6.43 µM and 5.58 µM | GI50 (SNB-75 CNS): 2.01 µM and 1.16 µM and 0.905 µM | TGI (SNB-75 CNS): 14.5 µM and 14.3 µM and 10 µM | GI50 (SR leukemia): 0.398 µM and 0.188 µM and 0.123 µM | TGI (SR leukemia): 1.75 µM and 0.958 µM and 0.754 µM | GI50 (SW-620 colon): 0.737 µM and 0.304 µM and 0.238 µM | TGI (SW-620 colon): 3.14 µM and 2.45 µM and 2.33 µM | GI50 (T-47D breast): 1.34 µM and 0.381 µM and 0.779 µM | TGI (T-47D breast): 3.22 µM | GI50 (TK-10 renal): 2.8 µM and 1.42 µM and 1.21 µM | TGI (TK-10 renal): 14.7 µM and 8.94 µM and 5.88 µM | TGI (U251 CNS): 3.1 µM and 2.73 µM and 2.78 µM | GI50 (UACC-257 melanoma): 1.69 µM and 0.825 µM and 1.07 µM | TGI (UACC-257 melanoma): 4.14 µM and 3.08 µM and 2.43 µM | GI50 (UACC-62 melanoma): 0.532 µM and 0.309 µM and 0.244 µM | TGI (UACC-62 melanoma): 2.11 µM and 1.56 µM and 1.5 µM | TGI (UO-31 renal): 15.3 µM and 10.8 µM and 10.9 µM
